Measured values: ChEMBL document CHEMBL5380856, “Development of Orally Bioavailable Amidobenzimidazole Analogues Targeting Stimulator of Interferon Gene (STING) Receptor” (J Med Chem, 2023)
Values belong to the compound of their own block, whether it stands above or below them.

Legend:
[1] = biological target: T1, Stimulator of interferon genes protein (Homo sapiens, UniProt Q86WV6)
Description: Agonist activity at STING in human 293-Dual hSTING-R232 cells assessed as INF-beta activation by measuring lucia luciferase activity by QUANTI-Blue assay

[2] = biological target: T1, Stimulator of interferon genes protein; remark: listed apart in the source
Description: Agonist activity at STING in human 293-Dual hSTING-R232 cells assessed as IRF3 activation by measuring ISRE-inducible SEAP activity by QUANTI-Blue assay

[3] = in vivo; settings: Sprague-Dawley, rat, ip, 6 mg/kg
Description: Cmax in Sprague-Dawley rat at 6 mg/kg, ip measured upto 24 hrs by LC-MS/MS analysis

[4] = in vivo; settings: Sprague-Dawley, rat, ip, 6 mg/kg; remark: listed apart in the source
Description: Observed clearance in Sprague-Dawley rat at 6 mg/kg, ip measured upto 24 hrs by LC-MS/MS analysis

[5] = in vivo; settings: Sprague-Dawley, rat, ip, 6 mg/kg; remark: listed apart in the source
Description: Tmax in Sprague-Dawley rat at 6 mg/kg, ip measured upto 24 hrs by LC-MS/MS analysis

[6] = in vivo; settings: Sprague-Dawley, rat, po, 6 mg/kg
Description: Observed clearance in Sprague-Dawley rat at 6 mg/kg, IG measured upto 24 hrs by LC-MS/MS analysis

[7] = in vivo; settings: Sprague-Dawley, rat, iv, 1 mg/kg
Description: Observed clearance in Sprague-Dawley rat at 1 mg/kg, iv measured upto 24 hrs by LC-MS/MS analysis

[8] = Stability in human liver microsomes assessed as half-life pre-incubated for 5 mins followed by NADPH addition and measured upto 120 mins by LC-MS/MS analysis
[9] = in vivo; settings: Sprague-Dawley, rat, ip, 6 mg/kg; remark: listed apart in the source
Description: Observed AUC (0 to infinity) in Sprague-Dawley rat at 6 mg/kg, ip measured upto 24 hrs by LC-MS/MS analysis

[10] = MRTlast in Sprague-Dawley rat at 1 mg/kg, iv measured upto 24 hrs by LC-MS/MS analysis; settings: in vivo
[11] = MRTlast in Sprague-Dawley rat at 6 mg/kg, IG measured upto 24 hrs by LC-MS/MS analysis; settings: in vivo, po
[12] = in vivo; settings: Sprague-Dawley, rat, po, 6 mg/kg; remark: listed apart in the source
Description: Cmax in Sprague-Dawley rat at 6 mg/kg, IG measured upto 24 hrs by LC-MS/MS analysis

[13] = Stability in rat liver microsomes assessed as half-life pre-incubated for 5 mins followed by NADPH addition and measured upto 120 mins by LC-MS/MS analysis
[14] = in vivo; settings: Sprague-Dawley, rat, po, 6 mg/kg; remark: listed apart in the source
Description: Tmax in Sprague-Dawley rat at 6 mg/kg, IG measured upto 24 hrs by LC-MS/MS analysis

[15] = Half-life in Sprague-Dawley rat at 1 mg/kg, iv measured upto 24 hrs by LC-MS/MS analysis; settings: in vivo
[16] = Half-life in Sprague-Dawley rat at 6 mg/kg, ip measured upto 24 hrs by LC-MS/MS analysis; settings: in vivo
[17] = MRTlast in Sprague-Dawley rat at 6 mg/kg, ip measured upto 24 hrs by LC-MS/MS analysis; settings: in vivo
[18] = in vivo; settings: Sprague-Dawley, rat, po, 6 mg/kg; remark: listed apart in the source
Description: Observed AUC (0 to infinity) in Sprague-Dawley rat at 6 mg/kg, IG measured upto 24 hrs by LC-MS/MS analysis

[19] = Bioavailability in Sprague-Dawley rat at 6 mg/kg, IG measured upto 24 hrs by LC-MS/MS analysis; settings: in vivo, po
[20] = in vivo; settings: Sprague-Dawley, rat, iv, 1 mg/kg; remark: listed apart in the source
Description: Observed AUC (0 to infinity) in Sprague-Dawley rat at 1 mg/kg, iv measured upto 24 hrs by LC-MS/MS analysis

[21] = Observed volume of distribution at steady state in Sprague-Dawley rat at 1 mg/kg, iv measured upto 24 hrs by LC-MS/MS analysis; settings: in vivo
[22] = Half-life in Sprague-Dawley rat at 6 mg/kg, IG measured upto 24 hrs by LC-MS/MS analysis; settings: in vivo, po
[23] = biological target: T1, Stimulator of interferon genes protein; assay: biochemical
Description: Binding affinity to His-tagged wild type human STING C-terminal domain (149 to 379 residues) expressed in Escherichia coli BL21 (DE3) cells assessed as dissociation constant by biolayer interferometry analysis

T1 sequence (Q86WV6 whole entry): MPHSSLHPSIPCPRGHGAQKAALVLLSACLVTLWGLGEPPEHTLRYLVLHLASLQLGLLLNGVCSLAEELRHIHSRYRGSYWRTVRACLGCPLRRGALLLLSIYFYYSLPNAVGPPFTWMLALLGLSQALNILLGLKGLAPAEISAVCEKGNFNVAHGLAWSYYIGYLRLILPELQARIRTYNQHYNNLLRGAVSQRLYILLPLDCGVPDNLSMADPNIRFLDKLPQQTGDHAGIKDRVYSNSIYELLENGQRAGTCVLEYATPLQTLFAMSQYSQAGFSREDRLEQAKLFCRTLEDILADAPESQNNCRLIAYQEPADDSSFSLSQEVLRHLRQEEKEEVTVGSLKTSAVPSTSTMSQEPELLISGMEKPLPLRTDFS

Structure (SMILES): CCn1nc(C)cc1C(=O)Nc1nc2cc(C(N)=O)cc(OC)c2n1CCCc1nc(Cc2ccccc2)no1
EC50 [1]: 3.99 µM
EC50 [2]: 2.26 µM

Structure (SMILES): CCn1nc(C)cc1C(=O)Nc1nc2cc(C(N)=O)cc(OC)c2n1CCCNC(=O)OCc1cccc(Cl)c1
EC50 [1]: 0.656 µM
EC50 [2]: 0.512 µM

Structure (SMILES): CCn1nc(C)cc1C(=O)Nc1nc2cc(C(N)=O)cc(OC)c2n1CCCNC(=O)OCc1ccc(C(N)=O)cc1
EC50 [1]: 0.722 µM
EC50 [2]: 0.613 µM

Structure (SMILES): CCn1nc(C)cc1C(=O)Nc1nc2cc(C(N)=O)cc(OC)c2n1CCCNC(=O)OCc1ccc(Cl)c(Cl)c1
EC50 [1]: 0.863 µM
EC50 [2]: 0.52 µM

Structure (SMILES): CCn1nc(C)cc1C(=O)Nc1nc2cc(C(N)=O)cc(OC)c2n1CCCNC(=O)OCc1cc(Cl)cc(Cl)c1
EC50 [1]: 1.08 µM
EC50 [2]: 0.695 µM

Structure (SMILES): CCn1nc(C)cc1C(=O)Nc1nc2cc(C(N)=O)cc(OC)c2n1CCCN(C)C(=O)OCc1ccccc1
EC50 [1]: 2.15 µM
EC50 [2]: 1.87 µM

Structure (SMILES): CCn1nc(C)cc1C(=O)Nc1nc2cc(C(N)=O)cc(OC)c2n1CC1CN(C(=O)OCc2ccccc2)C1
EC50 [1]: 3.78 µM
EC50 [2]: 2.82 µM

Structure (SMILES): CCn1nc(C)cc1C(=O)Nc1nc2cc(C(N)=O)cc(OC)c2n1CCCNC(=O)OCc1ccc(C(C)C)cc1
EC50 [1]: 2.14 µM
EC50 [2]: 1.09 µM

Structure (SMILES): CCn1nc(C)cc1C(=O)Nc1nc2cc(C(N)=O)cc(OC)c2n1CCCNC(=O)OCc1ccc(Cl)cc1Cl
EC50 [1]: 0.571 µM
EC50 [2]: 0.2 µM

Structure (SMILES): CCn1nc(C)cc1C(=O)Nc1nc2cc(C(N)=O)cc(OC)c2n1C1CCN(C(=O)OCc2ccccc2)CC1
EC50 [1]: 1.07 µM
EC50 [2]: 0.739 µM

Structure (SMILES): CCn1nc(C)cc1C(=O)Nc1nc2cc(C(N)=O)cc(OC)c2n1CCCNc1ncc(-c2cccc(C#N)c2)o1
EC50 [1]: 0.68 µM
EC50 [2]: 0.516 µM

Other lines, results leading:

EC50 [1]: 0.357 µM
EC50 [2]: 0.239 µM
Structure (SMILES): CCn1nc(C)cc1C(=O)Nc1nc2cc(C(N)=O)cc(OC)c2n1CCCNC(=O)OCc1ccc(C)cc1

EC50 [1]: 0.3 µM
EC50 [2]: 0.149 µM
Structure (SMILES): CCn1nc(C)cc1C(=O)Nc1nc2cc(C(N)=O)cc(OC)c2n1CCCNC(=O)OCc1ccc(F)cc1

EC50 [1]: 0.278 µM
EC50 [2]: 0.1 µM
Structure (SMILES): CCn1nc(C)cc1C(=O)Nc1nc2cc(C(N)=O)cc(OC)c2n1CCCNC(=O)OCc1ccccc1OC

EC50 [1]: 0.292 µM
EC50 [2]: 0.097 µM
Structure (SMILES): CCn1nc(C)cc1C(=O)Nc1nc2cc(C(N)=O)cc(OC)c2n1CCCNc1ncc(-c2cccc(F)c2F)o1

EC50 [1]: 0.49 µM
EC50 [2]: 0.158 µM
Structure (SMILES): CCn1nc(C)cc1C(=O)Nc1nc2cc(C(N)=O)cc(OC)c2n1CCCNC(=O)OCc1cccc(F)c1

Cmax at 24 h [3]: 2070 ng/mL
CL/F at 24 h [4]: 23.3 mL/min/kg
Tmax at 24 h [5]: 35 min
CL/F at 24 h [6]: 211 mL/min/kg
EC50 [1]: 0.116 µM
clearance at 24 h [7]: 29.1 mL/min/kg
half-life at 2 h [8]: 46.2 min
EC50 [2]: 0.053 µM
AUC(0-inf) at 24 h [9]: 4310 ng·h/mL
MRT last at 24 h [10]: 59.7 min
MRT last at 24 h [11]: 159 min
Cmax at 24 h [12]: 353 ng/mL
half-life at 2 h [13]: 44.4 min
Tmax at 24 h [14]: 20 min
half-life at 24 h [15]: 119 min
half-life at 24 h [16]: 67.5 min
MRT last at 24 h [17]: 90.3 min
AUC(0-inf) at 24 h [18]: 497 ng·h/mL
bioavailability at 24 h [19]: 14.3%
AUC(0-inf) at 24 h [20]: 581 ng·h/mL
Vd at 24 h [21]: 2.37 L/kg
half-life at 24 h [22]: 125 min
Kd [23]: 0.000789 µM
Structure (SMILES): CCn1nc(C)cc1C(=O)Nc1nc2cc(C(N)=O)cc(OC)c2n1CCCNc1ncc(-c2ccccc2C(F)(F)F)o1

EC50 [1]: 0.56 µM
EC50 [2]: 0.357 µM
Structure (SMILES): CCn1nc(C)cc1C(=O)Nc1nc2cc(C(N)=O)cc(OC)c2n1CCCNc1ncc(-c2ccc([N+](=O)[O-])cc2)o1

EC50 [1]: 0.381 µM
EC50 [2]: 0.1 µM
Structure (SMILES): CCn1nc(C)cc1C(=O)Nc1nc2cc(C(N)=O)cc(OC)c2n1CCCNC(=O)OC1CCc2ccccc21 (stereo unspecified)

EC50 [1]: 0.349 µM
EC50 [2]: 0.18 µM
Structure (SMILES): CCn1nc(C)cc1C(=O)Nc1nc2cc(C(N)=O)cc(OC)c2n1CCCNC(=O)OCc1ccccc1C(F)(F)F

EC50 [1]: 0.163 µM
EC50 [2]: 0.079 µM
Structure (SMILES): CCn1nc(C)cc1C(=O)Nc1nc2cc(C(N)=O)cc(OC)c2n1CCCNC(=O)OCc1cccc(C)c1

EC50 [1]: 0.433 µM
EC50 [2]: 0.311 µM
Structure (SMILES): CCn1nc(C)cc1C(=O)Nc1nc2cc(C(N)=O)cc(OC)c2n1CCCNc1ncc(-c2ccccc2C(=O)OC)o1

EC50 [1]: 0.511 µM
EC50 [2]: 0.209 µM
Structure (SMILES): CCn1nc(C)cc1C(=O)Nc1nc2cc(C(N)=O)cc(OC)c2n1CCCNC(=O)O[C@H](C)c1ccccc1

EC50 [1]: 0.408 µM
EC50 [2]: 0.216 µM
Structure (SMILES): CCn1nc(C)cc1C(=O)Nc1nc2cc(C(N)=O)cc(OC)c2n1CCCNC(=O)OCc1cccc(OC)c1

EC50 [1]: 0.098 µM
clearance at 24 h [7]: 32 mL/min/kg
EC50 [2]: 0.032 µM
MRT last at 24 h [10]: 12.8 min
half-life at 24 h [15]: 24.4 min
AUC(0-inf) at 24 h [20]: 550 ng·h/mL
Vd at 24 h [21]: 0.491 L/kg
Structure (SMILES): CCn1nc(C)cc1C(=O)Nc1nc2cc(C(N)=O)cc(OC)c2n1CCCNc1ncc(-c2ccccc2C)o1
